Source: US10160972B2, “Methods and materials for treating cancer” (Mayo Foundation for Medical Education and Research, priority 2012, dated 2018)

Legend:
Panc cells = assay: Cell number growth inhibition assay; assay type: cell-based, human
Experimental: (§1) A number of cancer cell lines were tested to determine whether SCD1 protein expression correlates with growth inhibition of an SCD1 inhibitor in human cancer cell lines.
(§2) Cells (20,000/ml) were plated in 12 well cell culture plates, allowed to attach and treated with the indicated dose of SCD1 inhibitor ([…]) or standard of care (gemcitabine). Cell number was counted using a Coulter Counter. As show in FIG. 7, the data are expressed as percent of DMSO control. Each value represents triplicates. Western analysis for SCD1 protein expression was performed on each cell line with beta-actin as the loading control.

MiaPaca cells = assay: Cell number growth inhibition assay; assay type: cell-based, human; conditions: cell number as percent of DMSO control
Experimental: as §1, §2

Caki1 cells = assay: qPCR of five ER stress genes; assay type: cell-based, human
Experimental: (§3) An RNAqueous Midi Kit was utilized to extract and purify RNA from cell lines. Human tissue RNA was prepared using TRIzol® per manufacturer's protocol followed by purification using the RNAqueous Midi Kit. The O.D. 260/280 ratio of the mRNA was at least 1.8 and the 18s/28s bands were verified on a 1% agarose gel. cDNA was prepared from purified RNA samples using High Capacity cDNA Reverse Transcriptase Kit per manufacturer's instruction. TaqMan®Fast Universal PCR Master Mix and TaqMan®FAMTM dye-labeled probes including POLR2A (Hs00172187_m1) (normalization control), SCD1 (Hs01682761_m1), HSPA5 (Hs99999174_m1), CEBPβ (CEBPB Hs00270923_s1), GADD45A (Hs00169255_m1), DDIT3 (Hs01090850_m1), and HERPUD1 (Hs01124269_m1) were combined with prepared cDNA samples to analyze relative mRNA expression via qPCR. Fold change values were compared between normal and tumor, non-target scrambled lentiviral and target lentiviral infected, and DMSO vs. A939572 treated samples using the ΔΔCt method (Schmittgen T D, Livak K J. Analyzing real-time PCR data by the comparative C(T) method. Nat Protoc. 2008; 3:1101-8).
(§4) In order to validate the specificity of ER stress induction mediated by both A939572 and shSCD780, rescue assays were performed using OA-BSA in Caki1 and A498 cells qPCR analysis of five ER stress genes identified in the gene array including BiP, CHOP, HERPUD1 (homocysteine-inducible, ER-stress inducible, ubiquitin-like-1), GADD45a (DNA damage inducible transcript 1, DDIT1), and CEBPβ (CCAAT/enhancer binding protein beta) were examined.

A498 cells = assay: qPCR of five ER stress genes; assay type: cell-based, human
Experimental: as §3, §4

[1] = test system: ATF6 luciferase reporter in A498 cells
Experimental: For transient transfection, Caki1 and A498 cells were transfected using Lipofectamine 2000. Cells treated with DMSO vs. A939572 or infected using shSCD780 lentiviral constructs vs. NT control were harvested after 48 hrs using Promega's Dual Luciferase assay kit per the manufacturer's protocol and luciferase activity was measured using a Veritas Luminometer; reported as relative luminescence.
Caki1 and A498 cells transfected with an ATF6 luciferase reporter (p5xATF6-GL3) were treated with a 75 nM dose of A939572 or were infected with shSCD780. Resulting luminescence was measured after 48 hours.

Caki2 ccRCC cell line = conditions: read-out: IC50, decrease in proliferation; Caki2, day 5
Experimental: (§5) ccRCC cell lines: RWV366T and KIJ265T (16) (both stage IV ccRCC patient tissue derived), A498, Caki1, Caki2, and ACHN (ATCC) and K347N, K355N, K359N, K360N, K365N, and K366N normal renal tissue derived mortal cells (NRE) were cultured in DMEM medium (Cellgro) containing 5% FBS (Hyclone) and 1× penicillin-streptomycin (Invitrogen) at 37° C. in humidified conditions with 5% CO2.
(§6) Cells were plated (0.5 or 1×10^5/well) in 24-well plates for proliferation or treatment assays, in triplicate. Cells were trypsinized (0.25%) and counted using a Coulter Particle Counter at specified time intervals. For SCD1 rescue assays, oleic acid-albumin was added to media at 5 μM. Drug stocks were prepared in DMSO. […] Temsirolimus dosing was performed as described in the text. Soft agar cultures were prepared by diluting 2× growth medium 1:1 in 1.5% Seaplaque®GTG® agarose, with 500 cells/plate in 60 mm culture dishes. Colonies were stained with Giemsa (LabChem Inc.) and counted after 3 wks. Cell images were obtained with an OlympusIX71 microscope at 20× magnification.

ACHN ccRCC cell line = conditions: read-out: IC50, decrease in proliferation, day 5
Experimental: as §5, §6

A498 ccRCC cell line = conditions: read-out: IC50, decrease in proliferation; A498, day 5
Experimental: as §5, §6

Caki1 ccRCC cell line = conditions: read-out: IC50, decrease in proliferation; Caki1, day 5
Experimental: as §5, §6

SMILES: CNC(=O)c1cccc(NC(=O)N2CCC(Oc3ccccc3Cl)CC2)c1 [A939572]
- growth inhibition (Panc cells): growth inhibited at only high levels
- growth inhibition (MiaPaca cells): growth inhibited in a dose dependent fashion
- ER stress gene expression with addition of OA-BSA (Caki1 cells; Caki1, + OA-BSA): blocked
- mRNA expression of ER stress genes BiP, CHOP, HERPUD1, GADD45a, CEBPβ (Caki1 cells; Caki1, vs DMSO+BSA or NT control): significantly increased levels
- ER stress gene expression with addition of OA-BSA (A498 cells; A498, + OA-BSA): blocked
- mRNA expression of ER stress genes BiP, CHOP, HERPUD1, GADD45a, CEBPβ (A498 cells; A498, vs DMSO+BSA or NT control): significantly increased levels
- reporter activation with addition of OA-BSA ([1]; A498, + OA-BSA): significantly reduced reporter activation
- luciferase activity, fold change induction ([1]; A498, +BSA, 75 nM A939572 or shSCD780, 48 hours, vs DMSO and NT controls): 3.8 fold change
- IC50 (Caki2 ccRCC cell line): 0.065 µM
- IC50 (ACHN ccRCC cell line): 0.006 µM
- IC50 (A498 ccRCC cell line): 0.05 µM
- IC50 (Caki1 ccRCC cell line): 0.065 µM
